The results in this text go back to patent publication US20080274192A1, “Pharmaceutical Compositions Comprising an Amorphous Form of a Vegf-R-Inhibitor” (PFIZER INC., priority 2005, published 2008).

What all share (assay type): physicochemical
Data set [1] can be described thus: pKa of Compound A. The note with it: crystalline polymorphic Form IV.
Data set [2] in a line: solubility in model fasted duodenal solution. The note with it: fassif, pH 6.5, 37° C. The source says: Compound A can exist in several different crystalline forms, as described in U.S. Provisional Application 60/624,665, filed on Nov. 2, 2004, which is incorporated herein by reference. Compound A in the crystalline form referred to as polymorphic Form IV has a pKa of about 4.2, and a solubility that is dependent on the pH of the solution, with the solubility being higher at low pH than at high pH. […] This pH-dependent solubility combined with a low in vivo rate of absorption results in low oral bioavailability, as well as significant subject-to-subject pharmacokinetic variability, for crystalline Compound A. Accordingly, there is a need to improve the bioavailability and reduce pharmacokinetic variability of Compound A relative to its crystalline form.

Data set [3] can be described thus: in vitro dissolution test in MFD solution, material added directly. The note with it: MFD solution pH 6.5, 37° C., 200 μgA/mL dosed, no OPC pre-wetting. As to the method: An in vitro dissolution test was performed to determine the dissolution performance of the solid amorphous dispersion of Compound A relative to crystalline Compound A. For this test, a sufficient amount of material was added to a microcentrifuge test tube so that the concentration of Compound A would have been 200 μgA/mL, if all of the compound had dissolved. The test was run in duplicate. The tubes were placed in a 37° C. temperature-controlled chamber, and 1.8 mL PBS at pH 6.5 and 290 mOsm/kg, containing 7.3 mM sodium taurocholic acid and 1.4 mM of 1-palmitoyl-2-oleyl-sn-glycero-3-phosphocholine, was added to each respective tube. The samples were quickly mixed using a vortex mixer for about 60 seconds. The samples were centrifuged at 13,000 G at 37° C. for 1 minute. The resulting supernatant solution was then sampled and diluted 1:6 (by volume) with methanol and analyzed by high-performance liquid chromatography (HPLC). HPLC analysis was performed using a Waters C18 column. The mobile phase consisted of 65% 20 mM ammonium phosphate, adjusted to pH 3 with H3PO4, and 35% acetonitrile. UV absorbance was measured at 350 nm. The contents of each tube were mixed on the vortex mixer and allowed to stand undisturbed at 37° C. until the next sample was taken. Samples were collected at 4, 10, 20, 40, 90, and 1200 minutes. […]

A short description of data set [4]: in vitro dissolution test in MFD solution, dosed as oral powder for constitution. The note with it: for AUC90 (area under the concentration-versus-time curve during the initial ninety minutes) / MDC90 (maximum dissolved concentration during the initial ninety minutes): MFD solution pH 6.5, 37° C., 200 μgA/mL dosed; for MDC90 (maximum dissolved concentration during the initial ninety minutes): pre-wetted with PBS/Methocel A/HPMCAS-H (OPC model). As to the method: An in vitro dissolution test was performed to determine the dissolution performance of amorphous Compound A relative to crystalline Compound A. For this test, a sufficient amount of material was added to a microcentrifuge test tube so that the concentration of Compound A would have been 200 μgA/mL, if all of the compound had dissolved. The test was run in duplicate. First, 50 μL PBS containing 0.5 wt % Methocel A and 5 mg/mL HPMCAS-H was added to the sample in the tube and mixed using a vortex mixer, to model an oral powder for constitution dosage form. The tubes were placed in a 37° C. temperature-controlled chamber, and 1.8 mL PBS at pH 6.5 and 290 mOsm/kg, containing 7.3 mM sodium taurocholic acid and 1.4 mM of 1-palmitoyl-2-oleyl-sn-glycero-3-phosphocholine, was added to each respective tube. The samples were quickly mixed using a vortex mixer for about 60 seconds. The samples were centrifuged at 13,000 G at 37° C. for 1 minute. The resulting supernatant solution was then sampled and diluted 1:6 (by volume) with methanol and then analyzed by HPLC as described above. The contents of each tube were mixed on the vortex mixer and allowed to stand undisturbed at 37° C. until the next sample was taken. Samples were collected at 4, 10, 20, 40, 90, and 1200 minutes.
A similar test was performed with crystalline Compound A alone (Example 1), and a sufficient amount of material was added so that the concentration of compound would have been 200 μgA/mL, if all of the compound had dissolved.
The concentrations of Compound A obtained in these samples were used to determine the maximum dissolved concentration of Compound A (“MDC90”) and the area under the concentration-versus-time curve (“AUC90”) during the initial ninety minutes.
For these tests, a sufficient amount of material was added so that the concentration of Compound A would have been 200 μgA/mL, if all of the compound had dissolved. The results for the solid amorphous dispersion of Example 2 are included in Table 6, as are the results for tests with pure amorphous Compound A (Example 1) and crystalline Compound A (Example 1).

In brackets after ≈: the same amount, converted by molar mass.

As to `CNC(=O)c1ccccc1Sc1ccc2c(/C=C/c3ccccn3)n[nH]c2c1` [Compound A, 6-[2-(methylcarbamoyl)phenylsulfanyl]-3-E-[2-(pyridin-2-yl)ethenyl]indazole], the pKa (as a rule, the negative logarithm of the acid dissociation constant) in data set [1] was roughly 4.2. The solubility – broadly, the dissolved amount per volume that the medium holds – in data set [2] is roughly 4 µg/mL (≈ 10.3 µM).
`CNC(=O)c1ccccc1Sc1ccc2c(/C=C/c3ccccn3)n[nH]c2c1` [Crystalline Compound A, 6-[2-(methylcarbamoyl)phenylsulfanyl]-3-E-[2-(pyridin-2-yl)ethenyl]indazole]: the “AUC90 (area under the concentration-versus-time curve during the initial ninety minutes)” value in data set [3] came to 200 min * μgA/mL; in data set [4] (OPC model), 300 min * μgA/mL. In addition, the “MDC90 (maximum dissolved concentration during the initial ninety minutes)” value in data set [3] and in data set [4] was 3 μgA/mL in each case.
As to `CNC(=O)c1ccccc1Sc1ccc2c(/C=C/c3ccccn3)n[nH]c2c1` [Example 1, 6-[2-(methylcarbamoyl)phenylsulfanyl]-3-E-[2-(pyridin-2-yl)ethenyl]indazole], in data set [4] (OPC model), the “AUC90 (area under the concentration-versus-time curve during the initial ninety minutes)” value is on record as 1700 min * μgA/mL. The “MDC90 (maximum dissolved concentration during the initial ninety minutes)” value in data set [4] was 48 μgA/mL. Besides, in data set [4] (OPC model, MFD solution), the “AUC90 relative to crystalline Compound A” value is on record as 5.7 fold and the “MDC90 relative to crystalline Compound A” value amounted to 16 fold.
